Data on 29 compounds can be found in PMC6337383, “Discovery of Potent Inhibitors for the Large Neutral Amino Acid Transporter 1 (LAT1) by Structure-Based Methods” (International Journal of Molecular Sciences, 2018).

“And” between values parts separate entries of the source, which are not always exact repeats. Identical values can stand only once. “Also recorded” adds a separate entry of the source.

This assay deals with T1, recombinant human LAT1 (Homo sapiens, UniProt Q01650).
T1 construct: made in house; host or cells: E. coli
Put plainly: Inhibition of LAT1 mediated [3H]-His transport in proteoliposomes reconstituted with recombinant purified human LAT1. Details: Dose-response analysis, Mean / Dose-response analysis, single experiments: unit not given here. Conditions: for % Residual Activity: 100 µM concentration, n = 3, Table S6; for LAT1 inhibition, activity in words: 100 μM compound, [3H]-His uptake in proteoliposomes; for inhibition at 100 µM: 100 µM compound; for IC50: 5 μM [3H]-His, proteoliposomes containing 10 mM His, mean ± S.D., three experiments; for Dose-response analysis, single experiments: Exp. 1, Exp. 2, Exp. 3 in this order; for Dose-response analysis, Mean: mean of Exp. 1-3. Type of assay: biochemical. The method, then: All 30 compounds were evaluated for their potency to inhibit LAT1 mediated histidine transport in proteoliposomes reconstituted with recombinant purified human LAT1 (see Methods). […]
Human LAT1 was over-expressed in E. coli and was purified as previously described. In brief, solubilized cell lysate was centrifuged (12,000× g, 10 min, 4 °C); supernatant was applied on a His-Trap HP column (5 mL Ni Sepharose) connected to ÄKTA start system. The column was equilibrated with 10 mL buffer (20 mM Tris HCl pH 8.0, 10% glycerol, 200 mM NaCl, 0.1% sarkosyl) prior to supernatant application. The column was washed with 10 mL buffer (20 mM Tris HCl pH 8.0, 10% glycerol, 200 mM NaCl, 0.05% DDM, and 2 mM DTE) and the protein was eluted with the same buffer plus 400 mM imidazole. Purified protein was desalted, in order to remove imidazole, using a PD-10 column in a buffer containing 20 mM Tris HCl pH 8.0, 10% glycerol, 0.05% DDM and 10 mM DTE.
The purified human LAT1 was reconstituted by detergent removal approach using the batch-wise method, as previously described. In brief, the initial mixture contained: 4 μg of purified protein, 100 μL of 10% C12E8, 100 μL of 10% egg yolk phospholipids (w/v) in the form of liposomes that were prepared as previously described, 20 mM Tris HCl pH 7.5, and 10 mM L-His in a final volume of 700 μL. This mixture was incubated with 0.5 g of Amberlite XAD-4 for 90 min at 23 °C, 1200 rpm to retain detergent.
To perform transport assays, the external substrate was removed by gel filtration chromatography: 600 μL of proteoliposomes were passed through a Sephadex G-75 column (0.7 cm diameter × 15 cm height) pre-equilibrated with 20 mM Tris HCl pH 7.5 and a concentration of sucrose to balance internal osmolarity. Transport was started adding 5 μM [^3H]-His to proteoliposomes and stopped after 30 min according to the stop inhibitor method, as previously described. In brief, in controls 1.5 µM HgCl2 was added at time zero and radioactivity was subtracted to samples for calculating net transport. After stopping the transport reaction, 100 μL of proteoliposomes was subjected to gel filtration chromatography using a Sephadex G-75 column (0.6 cm diameter × 8 cm height), to separate the external from the internal radioactivity. Proteoliposomes were eluted with 1 mL 50 mM NaCl in 4 mL scintillation mixture and counted. […] Protein concentration was estimated by Chemidoc imaging system1 [104] to calculate the human LAT1 specific activity.

T1 sequence (Q01650 whole entry): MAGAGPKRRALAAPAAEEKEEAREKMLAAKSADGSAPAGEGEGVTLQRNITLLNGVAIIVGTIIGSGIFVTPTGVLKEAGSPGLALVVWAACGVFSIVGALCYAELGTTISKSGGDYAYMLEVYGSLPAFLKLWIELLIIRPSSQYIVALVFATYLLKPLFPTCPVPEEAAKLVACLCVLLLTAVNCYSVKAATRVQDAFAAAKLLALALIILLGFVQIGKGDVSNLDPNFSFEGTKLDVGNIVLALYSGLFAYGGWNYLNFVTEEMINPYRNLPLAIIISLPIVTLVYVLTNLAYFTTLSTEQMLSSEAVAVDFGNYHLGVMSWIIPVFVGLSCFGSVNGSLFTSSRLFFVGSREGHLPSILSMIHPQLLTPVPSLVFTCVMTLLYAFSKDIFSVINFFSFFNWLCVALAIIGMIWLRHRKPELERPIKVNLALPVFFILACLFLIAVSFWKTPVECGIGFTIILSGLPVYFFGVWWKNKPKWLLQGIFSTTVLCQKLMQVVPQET

Turning to `CCn1cnnc1C(C)NC(=O)c1ccc2[nH]c(=O)c(=O)[nH]c2c1` (stereo not shown) [Compound 16], the “% Residual Activity” value turned out to be 95.1%.

Consider `N[C@@H](Cc1ccc2ccccc2n1)C(=O)O` [Compound 37], for which the “LAT1 inhibition, activity in words” value is recorded as “slightly active” and the “% Residual Activity” value is 65.31%.

On to `NC(CSCc1cccc2ccccc12)C(=O)O` (stereo not shown) [Compound 33], for which the inhibition at 100 µM lay in the range of 80 to 90%; the “LAT1 inhibition, activity in words” value was “highly active”; the “% Residual Activity” value is 17.86%.

In the case of `O=C(O)CNC(=O)c1nc(Cl)c2ccccc2c1O` [Compound 31], the “% Residual Activity” value is reported as 91.83%.

In the case of `O=C(c1ccc2[nH]c(CO)nc2c1)N(Cc1ccco1)Cc1cccs1` [Compound 22], the “% Residual Activity” value was found to be 93.36%.

Take `NC(Cc1cn(-c2ccccc2)nn1)C(=O)O` (stereo not shown) [Compound 34]: the “LAT1 inhibition, activity in words” value is recorded as “slightly active” and the “% Residual Activity” value came out at 77.12%.

Regarding `Cc1sc2ccccc2c1CN1CCCn2nc(C(O)CO)cc2C1` (stereo not shown) [Compound 21], the “% Residual Activity” value stood at 85.14%.

With `N[C@@H](Cc1cccc(C(F)(F)F)c1)C(=O)O` [Compound 41], the inhibition at 100 µM was in the range of 80 to 90% and the “% Residual Activity” value was found to be 15.21%.

In the case of `NC(Cc1cccc(OCc2ccccc2)c1)C(=O)O` (stereo not shown) [Compound 35], the inhibition at 100 µM fell in the range of 80 to 90%; the “LAT1 inhibition, activity in words” value was “highly active”; the “% Residual Activity” value is on record as 11.78%.

As for `CN(Cc1cc(Br)cc(Br)c1N)C1CCCCC1` [Compound 29], the “% Residual Activity” value amounted to 98.42%.

Regarding `CC(C)COc1ccc(C(N)CC(=O)O)cc1` (stereo not shown) [Compound 27], the “LAT1 inhibition, activity in words” value is listed as “slightly active” and the “% Residual Activity” value amounted to 67.96%.

Regarding `Cc1cccnc1CN(C)C(C(=O)O)c1ccc(-n2cccn2)cc1` (stereo not shown) [Compound 26], the “% Residual Activity” value is 89.37%.

`CCOc1ccccc1CN(Cc1cc(O)c(OC)cn1)C1CC1` [Compound 19]: the “% Residual Activity” value was 93.06%.

On to `COc1ccc(CSCC(N)C(=O)O)cc1Br` (stereo not shown) [Compound 28], for which the half-inhibitory concentration (IC50) stood at 33.2 ± 4.5 µM; the inhibition at 100 µM was in the range of 80 to 100%; the “LAT1 inhibition, activity in words” value is listed as “highly active”; the “% Residual Activity” value is on record as 12.93%. For the setting “0.1 [] M compound”, the “Dose-response analysis, single experiments” value was 98.56 and 118.69 and 87.20; the “Dose-response analysis, Mean” value was found to be 101.48. Under “0.2 [] M compound”, the “Dose-response analysis, single experiments” value is 109.35 and 122.43 and 93.48; the “Dose-response analysis, Mean” value is 108.42. In addition, where the note is “0.5 [] M compound”, the “Dose-response analysis, single experiments” value was 112.59 and 110.90 and 85.27; the “Dose-response analysis, Mean” value turned out to be 102.92. Further, for the setting “1 [] M compound”, the “Dose-response analysis, single experiments” value is 120.86 and 119.63 and 97.34; the “Dose-response analysis, Mean” value came to 112.61. Besides, for the setting “2.5 [] M compound”, the “Dose-response analysis, single experiments” value was 84.89 and 85.98 and 94.20; the “Dose-response analysis, Mean” value came to 88.36. Further, under “5 [] M compound”, the “Dose-response analysis, single experiments” value was 79.14 and 103.43 and 83.33; the “Dose-response analysis, Mean” value was 88.63. For the same compound, under “10 [] M compound”, the “Dose-response analysis, single experiments” value is 96.40 and 89.72 and 73.19; the “Dose-response analysis, Mean” value turned out to be 86.44. Further, for the setting “25 [] M compound”, the “Dose-response analysis, single experiments” value is 57.91 and 52.02 and 47.58; the “Dose-response analysis, Mean” value worked out at 52.51. In addition, the “Dose-response analysis, Mean” value (50 [] M compound) stood at 38.86. In addition, the “Dose-response analysis, Mean” value (100 [] M compound) was 24.50.

Regarding `N[C@@H](Cc1cn(Cc2ccccc2)cn1)C(=O)O` [Compound 40], the inhibition at 100 µM is 80 to 90% and the “% Residual Activity” value is reported as 11.34%.

On to `NC1(C(=O)O)CCCC1Cc1ccc(Cl)cc1` (stereo not shown) [Compound 32], for which the “LAT1 inhibition, activity in words” value is listed as “moderately active; also recorded: modest affinity” and the “% Residual Activity” value is given as 53.11%.

As for `CCCCN(Cc1ccsc1)C(=O)c1ccc(NS(=O)(=O)CC)cc1` [Compound 17], the “% Residual Activity” value is 94.75%.

Regarding `O=C(O)[C@@H]1C[C@H](n2cc(-c3ccccn3)nn2)CN1` [Compound 25], the “% Residual Activity” value amounted to 94.12%.

In the case of `N#Cc1c(-c2ccccc2-c2ccco2)cc(-c2cc(C(=O)O)[nH]n2)nc1N` [Compound 13], the “% Residual Activity” value was found to be 74.23%.

On to `CN(Cc1ccon1)C(C(=O)O)c1ccc(-n2cccn2)cc1` (stereo not shown) [Compound 23], for which the “% Residual Activity” value is reported as 96.22%.

For `Cc1nnc(-c2ccccc2-c2ccc(CNS(C)(=O)=O)cc2)o1` [Compound 14], the “% Residual Activity” value was 95.87%.

Consider `N[C@@H](CSC(c1ccccc1)(c1ccccc1)c1ccccc1)C(=O)O` [Compound 39], for which the inhibition at 100 µM fell in the range of 80 to 90% and the “% Residual Activity” value is recorded as 11.76%.

As for `N[C@@H](Cc1ccc(OCc2c(Cl)cccc2Cl)cc1)C(=O)O` [Compound 38], the inhibition at 100 µM fell in the range of 80 to 90% and the “% Residual Activity” value was 13.17%.

Regarding `Cc1cc(OC(C)(C)C(=O)NCc2n[nH]c(=O)[nH]2)cc(C)c1Cl` [Compound 20], the “% Residual Activity” value is given as 90.07%.

Turning to `CN1CCCC(n2nc(Cc3ccc(Cl)cc3)c3ccccc3c2=O)CC1` (stereo not shown) [Compound 30], the “% Residual Activity” value was found to be 94.08%.

Consider `N[C@@H](CCc1cc(Cl)cc(Cl)c1)C(=O)O` [Compound 36], for which the IC50 amounted to 0.64 ± 0.12 µM; the inhibition at 100 µM was greater than 90%; the “LAT1 inhibition, activity in words” value was “highly active; also recorded: almost complete inhibition”; the “% Residual Activity” value was 0%. In addition, where the note is “0.1 [] M compound”, the “Dose-response analysis, single experiments” value was 81.30 and 100.31 and 62.08; the “Dose-response analysis, Mean” value is given as 81.23. Also, where the note is “0.2 [] M compound”, the “Dose-response analysis, Mean” value was found to be 82.32. Moreover, the “Dose-response analysis, Mean” value (0.5 [] M compound) is recorded as 45.71. Moreover, under “1 [] M compound”, the “Dose-response analysis, single experiments” value is 38.13 and 55.14 and 40.82; the “Dose-response analysis, Mean” value is 44.70. The “Dose-response analysis, Mean” value (2.5 [] M compound) stood at 28.38. Further, under “5 [] M compound”, the “Dose-response analysis, Mean” value was 5.92. In addition, under “10 [] M compound”, the “Dose-response analysis, single experiments” value came out at 0.00 and the “Dose-response analysis, Mean” value is recorded as 0.00. The “Dose-response analysis, Mean” value (25 [] M compound) was determined as 13.53. Moreover, where the note is “50 [] M compound”, the “Dose-response analysis, Mean” value came out at 2.08. The “Dose-response analysis, Mean” value (100 [] M compound) is 14.15. Also, the “times more potent than 1” value (ratio of IC50 values versus 1 (BCH)) is ~ 10.

As to `CCOc1ccc(Cl)cc1C(C(=O)O)N(C)Cc1cnccn1` (stereo not shown) [Compound 24], the “% Residual Activity” value stood at 100.72%.

For the compound `CCOc1ccc(Cl)cc1-c1cccc(OCC(N)=O)c1` [Compound 18], the “% Residual Activity” value came to 90.14%.

Turning to `C=CCN(Cc1cccc(OCC(N)=O)c1)Cc1ccccc1C` [Compound 15], the “% Residual Activity” value was 92.21%.
